Assay results taken from patent US20210353595A1, “USE OF MELATONIN IN PREPARATION OF MEDICAMENT FOR INHIBITING AND/OR KILLING BACTERIUM” (priority 2020, published 2021).

Assays:
[1] = test system: P. multocida cells; assay: SEM and TEM morphology of bacterial cells; format: cell-based, Pasteurella multocida; details: combined action of melatonin and citric acid; FIG. 18
Procedure: The effect of melatonin on the morphologies of P. multocida cells were evaluated employing SEM and TEM. 1 mL of fresh Pasteurella multocida (1×10^9 CFU) at the logarithmic growth stage was added into 100 mL of fresh Martin liquid medium containing different concentrations (1, 2 or 3 mg/mL) of MT. MT-free DMSO was used as a solvent control group and ampicillin (100 μg/mL) was used as a positive control group. All cultures were shaken at 220 rpm in a shaker at 37° C. for 8 hours, 12 hours or 16 hours. The bacterial samples were centrifuged at 3000 r/min for 10 minutes, the supernatant was removed, and cells were collected and washed with PBS for 3 times. Then the cells were fixed with a fixation solution of 2.5% fresh glutaraldehyde for 6 hours, and washed with PBS for 3 times, each time for 10 minutes. Subsequently, the SEM samples were dehydrated with 50%, 70%, 80% and 90% ethanol for 15 minutes respectively, and then dehydrated with 100% ethanol for 3 times, each time for 30 minutes. Ethanol was removed by washing with tert-butyl alcohol for three times, each time for 30 minutes. The samples were dried by a freeze dryer and plated with 10 nm of gold film by an ion sputtering device. The samples were examined using a field scanning electron microscope (FESEM, Hitch SU8010).
The TEM samples were fixed with 1%-2% […] for 2-3 hours, and washed with […] 3 times, each time for 10 minutes. The samples were dehydrated with 30%, 50%, 70%, 80% and 90% ethanol for 20 minutes respectively, and then dehydrated with 100% ethanol 3 times, each time for 30 minutes. Ethanol was replaced with acetone three times, each time for 30 minutes. The bacterial samples were placed on a copper grid with a formvar membrane, and negatively stained with phosphotungstic acid (2% v/v, pH=6.7). The surface area of the sample was less than 0.2 mm×0.2 mm, and slice thickness was between 50 and 90 nm (Lycra UC7). The samples were detected by TEM (Hitachi H-7650) at 80 kV, and photographs of the samples were taken by a Gatan832 CCD camera (Gatan). […]

[2] = test system: Pasteurella multocida; assay: Growth curve with exogenous citric acid; format: cell-based; details: citric acid 1, 2, 3 mg/mL alone; FIG. 16
Procedure: Here, 1 mL of Pasteurella multocida (1×10^9 CFU) at the logarithmic growth stage was added into 100 mL of fresh and sterile Martin broth medium containing different concentrations of citric acid (CA-1 mg/ml, CA-2 mg/mL, and CA-3 mg/mL), and citric acid-free DMSO was used as a solvent control group. The bacterial cells were cultured in a constant-temperature shaker at 37° C. and 220 rpm for […]. Then, the growth curve of the cells was determined. Each experiment was repeated for three times, and each group was set in triplicate.

[3] = test system: Pasteurella multocida; assay: Growth curve with melatonin and citric acid; format: cell-based; details: MT 1-3 mg/mL with CA 1-3 mg/mL, 12 h; FIG. 17
Procedure: 1 mL of Pasteurella multocida (1×10^9 CFU) at the logarithmic growth stage was also added into 100 mL of fresh and sterile Martin broth medium containing different concentrations of melatonin and citric acid (CA) (MT-1 mg/mL, MT-1 mg/mL-CA-1 mg/mL, MT-1 mg/mL-CA-2 mg/mL, MT-1 mg/mL-CA-3 mg/mL; MT-2 mg/mL, MT-2 mg/mL-CA-1 mg/mL, MT-2 mg/mL-CA-2 mg/mL, MT-2 mg/mL-CA-3 mg/mL; MT-3 mg/mL, MT-3mg/mL-CA-1 mg/mL, MT-3 mg/mL-CA-2 mg/mL, and MT-3 mg/mL-CA-3 mg/mL). DMSO not containing melatonin and citric acid was used as a solvent control group, and the bacterial cells were cultured in a constant-temperature shaker at 37° C. and 220 rpm for 12 h. Then the growth curve of the cells were determined. Each experiment was carried out for three times, and each group was set in triplicate.

[4] = test system: Pasteurella multocida; assay: Leakage of cell contents with melatonin and citric acid; format: cell-based; details: MT with CA (1/1, 2/2, 3/3 mg/mL), 12 h
Procedure: Additionally, 1 mL of Pasteurella multocida (1×10^9 CFU) at the logarithmic growth stage was added into 100 mL of fresh and sterile Martin broth medium containing different concentrations of melatonin and citric acid (CA) (MT-1 mg/mL, MT-2 mg/mL, MT-3 mg/mL, CA-1 mg/mL, CA-2 mg/mL, CA-3 mg/mL, MT-1 mg/mL-CA-1 mg/mL, MT-2 mg/mL-CA-2 mg/mL, MT-3 mg/mL-CA-3 mg/mL). The melatonin-free DMSO was used as a solvent control group, and the bacterial cells were cultured in a shaker at 37° C. and 220 rpm for 12 h. Thereafter, 1 mL of the bacterial solution was taken and centrifuged at 3000 r/min for 10 minutes, and the supernatant and precipitated cells were collected, respectively. At the same time, 2.5 mmol/mL of […] (ONPG) and Pasteurella multocida were added to detect ([…]. The concentrations of protein, alkaline phosphatase (AKP) and reducing sugar in the supernatant were determined sequentially using respective determination kits. The β-galactosidase in the supernatant was determined by measuring the optical density at 420 nm (OD420). Each experiment was carried out for three times, and each group was set in triplicate.

[5] = test system: Klebsiella pneumoniae; assay: Growth curve with melatonin and citric acid; format: cell-based; details: MT 1-3 mg/mL with CA 1-3 mg/mL, FIG. 27
Procedure: (§1) In additional studies, 1 mL of Klebsiella pneumoniae, Pseudomonas aeruginosa, Diplococcus pneumoniae and Streptococcus pneumoniae at the logarithmic growth stage was added into 100 mL of fresh and sterile Martin broth medium containing different concentrations of melatonin and citric acid (CA) (MT-1 mg/mL, MT-1 mg/mL-CA-1 mg/mL, MT-1 mg/mL-CA-2 mg/mL, MT-1 mg/mL-CA-3 mg/mL; MT-2 mg/mL, MT-2 mg/mL-CA-1 mg/mL, MT-2 mg/mL-CA-2 mg/mL, MT-2 mg/mL-CA-3 mg/mL; MT-3 mg/mL, MT-3 mg/mL-CA-1 mg/mL, MT-3 mg/mL-CA-2 mg/mL MT-3 mg/mL-CA-3 mg/mL).

[6] = test system: Pseudomonas aeruginosa; assay: Growth curve with melatonin and citric acid; format: cell-based; details: MT 1-3 mg/mL with CA 1-3 mg/mL, FIG. 27
Procedure: as §1

SMILES: O=C(O)CC(O)(CC(=O)O)C(=O)O [citric acid]
- cytoplasmic vacuolization and irregular cell membrane caused by melatonin (TEM) [1]: disappeared
- growth of Pasteurella multocida [2]: promotes the growth
- effect of added citric acid on antibacterial activity of melatonin [3]: reduces the antibacterial activity of melatonin
- melatonin-induced release of reducing sugar ([4]; FIG. 19): significantly reduces
- melatonin-induced release of proteins ([4]; FIG. 20): significantly reduces
- melatonin-induced release of AKP enzymes (alkaline phosphatase) ([4]; FIG. 21): significantly reduces
- melatonin-induced release of β-galactosidase ([4]; FIG. 22): significantly reduces
- melatonin-induced activity (release) of ATPase ([4]; FIG. 23): significantly reduces
- effect of exogenous citric acid on bacteriostatic effect of melatonin [5]: can reduce the bacteriostatic effect of melatonin
- effect of exogenous citric acid on bacteriostatic effect of melatonin [6]: can reduce the bacteriostatic effect of melatonin
